Series [1] has as its system Nrf2 transcription factor activation (Nrf2/Keap1/ARE). Description: Nrf2-responsive transient DLR reporter gene assay (pGL4.37 + pRL-CMV) in ZFL cells. It is filed as cell-based, zebrafish (Danio rerio). The note with it: for EC50: 4PL regression, normalized induction. From the text:
A transient reporter gene assay for the assessment of oxidative stress in the ZFL cell line had been described previously (Lungu-Mitea and Lundqvist [2020]), and was applied here in an identical manner. Please consult the respective chapter within the SI for more details.
ZFL cells were also transiently co-transfected with the Nrf2-responsive reporter vector pGL4.37 and the normalization vector pRL-CMV, as described in (Lungu-Mitea and Lundqvist [2020]). The transcription factor Nrf2 is a central regulator of the oxidative stress response pathways (Nrf2/Keap1/ARE) (Itoh et al. [2004]) and a keystone in the regulation of oxidative stress detoxification, metabolism, and induction of related phase-II enzymes (e.g., GST, NQO1, HO-1). Detailed descriptions, results, and discussion are given in the respective section of the SI (p. 12–14; Figs. S10 + 11, Table S4). […]
(§1) 132 To undermine the “maisonette” squelching hypothesis, Comptox data regarding the induction of cellular
(§2) 133 stress response pathways were backed up by empirical data in ZFL cell lines. Therefore, ZFL cells were
(§3) 134 transiently co-transfected with the Nrf2-responsive reporter vector pGL4.37 and the normalization
(§4) 135 vector pRL-CMV, as described in (Lungu-Mitea and Lundqvist 2020). Experimental design, data
(§5) 136 handling, and statistical evaluation were identical to procedures described in the main manuscript. The
137 transcription factor Nrf2 is a central regulator of the oxidative stress response pathways
138 (Nrf2/Keap1/ARE) (Itoh et al. 2004) and a keystone in the regulation of oxidative stress detoxification,
139 metabolism, and induction of related phase-II enzymes (e.g. GST, NQO1, HO-1).
141 S10). […] Statistically
143 of the Nrf2-related luciferase signal.
144 optical inspection under the microscope ( not illustrated), leading to artefact effects in the luciferase
145 measurement. Therefore, specific points were excluded from the analysis and deemphasized in fig. S10.
146 Possibly, compound aggregation led to a flattening of the cytotoxicity curve in fig. S10. Compound
147 aggregation at higher molar concentratio ns has been discussed in (Owen et al. 2012, 2014) .
148 Concentrations up to cytotoxicity were used to derive a sigmoidal concentration -response relationship
149 (fig. S11). The computed parameters are depicted in tab. S4.

Series [2] can be described thus: Optical inspection under the microscope for crystalized aggregates in exposure medium. The series is classed as physicochemical. The note with it: BNF in exposure medium, ZFL cell culture.
Description: TOX21_ARE_BLA_agonist_ratio NFE2L2 nuclear factor, 0.985 DNA binding
ATG_ERE_CIS_up ESR1 estrogen receptor 1 1.06 nuclear receptor
TOX21_ARE_BLA_Agonist_ch2 – – 1.22 channel 2
ATG_PXRE_CIS_up NR1I2 nuclear receptor 2.24 nuclear receptor
ATG_ERa_TRANS_up ESR1 estrogen receptor 1 2.86 nuclear receptor
TOX21_AR_LUC_MDAKB2_Ago AR androgen receptor 3.69 nuclear receptor
ATG_VDRE_CIS_up VDR vitamin D (1,25- 4.28 nuclear receptor
TOX21_AhR_LUC_Agonist AHR aryl hydrocarbon 4.44 DNA binding
TOX21_ERa_LUC_VM7_Agonist ESR1 estrogen receptor 1 5.15 nuclear receptor
TOX21_AR_LUC_MDAKB2_Ago AR androgen receptor 5.43 nuclear receptor
TOX21_CAR_Agonist NR1I3 nuclear receptor 6.07 nuclear receptor
ATG_PXR_TRANS_up NR1I2 nuclear receptor 6.58 nuclear receptor
as §1, §2, §3, §4, §5
137 transcription factor Nrf2 is a central regulator of the oxidative stress response pathways […]

The target of series [3] is ESR1 (estrogen receptor 1). Further details: method as in ToxCast database, CompTox dashboard. The note with it: ATG_ERa_TRANS_up; ref ToxCast database, CompTox dashboard; cited from earlier work.

We go through one compound from article PMC10406726, “Development, scrutiny, and modulation of transient reporter gene assays of the xenobiotic metabolism pathway in zebrafish hepatocytes” (Cell Biology and Toxicology, 2021).

Each structure is given as a SMILES string.

For `O=c1cc(-c2ccccc2)oc2ccc3ccccc3c12` [BNF, β-naphthoflavone], the “LOEC of Nrf2 induction” value in series [1] (BNF exposure range of 3 pM to 1 mM, pGL4.37 + pRL-CMV) worked out at 30 nM. In addition, in series [1] (BNF, pGL4.37 + pRL-CMV), the “Slope (CI) of 4PL regression” value is on record as 0.77 (0.43-1.62) and the EC50 was 9.7 nM. The “concentration of maximal Nrf2 induction” value in series [1] (BNF, pGL4.37 + pRL-CMV (Fig. S10)) is 100 nM. The EC50 in series [1] (Danio rerio, BNF, pGL4.37 + pRL-CMV) was found to be 9.68 nM. Also, the “maximal Nrf2 induction” value in series [1] (at 100 nM BNF, pGL4.37 + pRL-CMV) was 3.4 fold. For the same compound, the “concentration above which crystalized aggregates were encountered” value in series [2] is “above 10 µM”. Further, the AC50 in series [3] is 2860 nM.
